The source of these data is patent US20200190090A1, “OREXIN RECEPTOR ANTAGONISTS” (BENEVOLENTAI BIO LIMITED, priority 2017, published 2020).

The target of assay [1] is T1, human recombinant OX2 (hOX2R) receptor (Homo sapiens, UniProt O43614).
T1 construct: expressed in transfected cells; host or cells: HEK cell line (membranes)
T1 sequence (O43614 1-444): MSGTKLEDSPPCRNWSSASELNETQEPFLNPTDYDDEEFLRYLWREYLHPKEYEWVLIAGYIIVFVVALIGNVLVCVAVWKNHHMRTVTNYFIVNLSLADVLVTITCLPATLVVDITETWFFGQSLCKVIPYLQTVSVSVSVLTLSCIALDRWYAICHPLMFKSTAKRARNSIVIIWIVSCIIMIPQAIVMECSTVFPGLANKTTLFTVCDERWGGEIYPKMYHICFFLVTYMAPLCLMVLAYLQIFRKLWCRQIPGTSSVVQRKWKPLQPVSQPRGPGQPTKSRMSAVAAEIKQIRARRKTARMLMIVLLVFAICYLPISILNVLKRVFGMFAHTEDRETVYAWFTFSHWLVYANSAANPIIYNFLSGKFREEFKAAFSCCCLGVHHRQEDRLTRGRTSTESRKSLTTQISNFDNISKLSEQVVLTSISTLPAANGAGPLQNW
As to the kind of experiment: Scintillation Proximity binding Assay (SPA), [3H]-EMPA displacement, membranes of HEK cell line transformed with hOX2R. The following applies: for Ki: 60 min, Cheng-Prusoff from IC50, geometric mean, read-out: hOX2R Binding pKi (60 min) (converted); for Selectivity OX2R/OX1R: selectivity calculated using Ki (Ox2R)/Ki(Ox1R). The method, then:
(§1) The in vitro binding affinity of 6-[(3aS,4S,6aR)-5-(2-fluoro-4-methoxybenzoyl)-4-methyl-octahydropyrrolo[3,4-c]pyrrol-2-yl]-2,4-dimethylpyridine-3-carbonitrile 3278/6 (the compound of Example 1) for human recombinant OX1 (hOX1R) and OX2 (hOX2R) receptors was determined using a Scintillation Proximity binding Assay (SPA).
(§2) A 96-well plate SPA was developed using antagonist radioligands (OX-radioligands); [3H]-SB674042 (Langmead et al., 2004; Malherbe et al., 2009a) for hOX1R and [3H]-EMPA (Malherbe et al., 2009b) for hOX2R. Cell membranes were prepared from recombinant cell lines; a CHO cell line transformed with hOX1R (GeneBank accession # NM_001525) and a HEK cell line transformed with hOX2R (GeneBank accession # NM_001526.2).
(§3) On the day of the assay, membranes containing hOX1R or hOX2R were captured onto SPA-beads. All test compounds were dissolved in 100% DMSO as 10 mM stock solutions, and prepared as 8-point semi-log dilution in 100% DMSO immediately prior to assay (final assay range 5 uM to 0.064 nM). The compound of Example 1 was co-administered with the appropriate OX-radioligand, and the SPA-membrane preparation added to initiate the assay. During the assay, any compound of Example 1 that bound to the receptors competed with radioligand and reduced the assay signal. Assay plates were read using PerkinElmer Microbeta2 allowing the binding profile of the compound of Example 1 to be assessed at room temperature (19° C.) over several time points (15, 60, 90, 120, 150 minutes, and 18 hours) in hOX1R and hOX2R assay formats.
(§4) End-point data values were determined as Specific Binding (SB) and expressed as a percentage of control (% SB), with 100% being the SB of OX-radioligand in the absence of competing unlabelled ligand, and 0% being the SB of the relevant OX-radioligand in the presence of an excess of the competing cold/unlabelled ligand (Suvorexant; a dual OXR-antagonist [DORA]).
(§5) TB=Total Bound (in presence of 0.5% DMSO); NSB=Non Specific Bound (in the presence of Suvorexant at 1 μM)=0%;
(§6) SB=Specific Bound (TB-NSB)=100%
(§7) Assay data were used to determine half maximal inhibitory concentration (IC50) using a four-parameter logistic model in XLfit and/or GraphPad Prism v5. IC50 were derived from plots of % SB against log 10 of the concentration of the compound of Example 1. The pKi were calculated from the IC50 using the Cheng-Prusoff correction: […]=IC50/(1+([L]/KD)) where [L] is the radioligand concentration in the displacement assay, and KD is the dissociation constant of the radioligand.
(§8) The Selectivity value is derived from the Ki [Ki (OX2R)/Ki(OX1R)].
(§9) was prepared and tested by analogous methods to those described above in Example 1 and Example 2 in respect of the compound of Example 1.

Assay [2] concerns the target T2, human recombinant OX1 (hOX1R) receptor (Homo sapiens, UniProt O43613).
T2 construct: expressed in transfected cells; host or cells: CHO cell line (membranes)
T2 sequence (O43613 1-425): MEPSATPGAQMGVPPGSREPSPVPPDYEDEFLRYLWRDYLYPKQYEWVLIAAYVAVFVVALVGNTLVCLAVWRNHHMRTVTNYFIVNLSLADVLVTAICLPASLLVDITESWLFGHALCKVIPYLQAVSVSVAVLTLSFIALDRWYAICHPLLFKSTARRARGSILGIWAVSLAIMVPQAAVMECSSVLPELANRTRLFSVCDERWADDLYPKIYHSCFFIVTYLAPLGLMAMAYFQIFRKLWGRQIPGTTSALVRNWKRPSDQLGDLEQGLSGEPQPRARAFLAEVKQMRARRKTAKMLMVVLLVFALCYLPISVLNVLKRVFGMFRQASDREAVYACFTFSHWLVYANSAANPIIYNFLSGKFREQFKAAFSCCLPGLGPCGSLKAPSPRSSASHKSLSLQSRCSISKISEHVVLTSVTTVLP
As to the kind of experiment: Scintillation Proximity binding Assay (SPA), [3H]-SB674042 displacement, membranes of CHO cell line transformed with hOX1R. The following applies: for Ki: 60 min, Cheng-Prusoff from IC50, geometric mean, read-out: hOX1R Binding pKi (60 min) (converted); for IC50: SPA, [3H]-SB674042, room temperature (19° C.), GeoMean, read-out: IC50 OX1R. The method, then:
as §1, §2, §3, §4, §5, §6, §7, §8, §9
On the technique in general: SPA uses beads or plates that emit light when radiolabelled molecules are held near them.

[3] abbreviates: SPA, [3H]-EMPA, room temperature (19° C.), GeoMean, read-out: IC50 OX2R.
Setting [4] is: data at 60 min, read-out: OX2R pIC50 (converted).

Each structure is given as a SMILES string. Where two headings read alike, the source gives them in different places.

In the case of `COc1ccc(C(=O)N2C[C@H]3CN(c4cc(C)c(C#N)c(C)n4)C[C@H]3[C@@H]2C)c(F)c1` [Example 1, 6-[(3aS,4S,6aR)-5-(2-fluoro-4-methoxybenzoyl)-4-methyl-octahydropyrrolo[3,4-c]pyrrol-2-yl]-2,4-dimethylpyridine-3-carbonitrile], in assay [1], the “affinity for hOX2R (in words)” value was “high affinity”, the Ki is 0.724 nM and the “Selectivity OX2R/OX1R” value is 69. Moreover, the IC50 in assay [1] (setting [3]) was 1.23 nM. The “affinity for hOX2R compared with comparative Example A (in words)” value in assay [1] (comparison) was “higher affinity”. Moreover, the IC50 in assay [1] (setting [4]) was 1.23 nM. Moreover, in assay [1] (head says IC50 ratio), the “hOX2R Selectivity (IC50 hOX2R/hOX1R)” value is given as 69. Further, the “selectivity for hOX2R” value in assay [1] (over hOX1R) stood at 69 fold. The “hOX2R Binding Equilibration Time” value in assay [1] (room temperature (19° C.)) stood at 38 min. In assay [2], the “affinity for hOX1R (in words)” value is given as “high affinity”, the Ki was 47.9 nM and the IC50 turned out to be 97.7 nM.

Consider `COc1ccc(C(=O)N2C[C@@H]3CN(c4cc(C)c(C#N)c(C)n4)C[C@@H]3C2)c(F)c1` [Example A, 6-[(3aS,4S,6aR)-5-(2-fluoro-4-methoxybenzoyl)-octahydropyrrolo[3,4-c]pyrrol-2-yl]-2,4-dimethylpyridine-3-carbonitrile, reference compound], for which the Ki is 85.1 nM in assay [1] and 3630 nM in assay [2]. Besides, in assay [1] (IC50 ratio), the “OX2R Selectivity (IC50 OX1R/OX2R)” value is 52. In addition, the IC50 was 150 nM in assay [1] (setting [3]), 151 nM in assay [1] (setting [4]) and 7840 nM in assay [2]. The “Selectivity OX2R/OX1R” value in assay [1] is 43.
